These results are taken from patent US20200172913A1, “PEPTIDES AND NANOPARTICLES FOR INTRACELLULAR DELIVERY OF VIRUS” (priority 2017, published 2020).

Where two headings read alike, the source gives them in different places.

Experiment [1] has as its system HepG2 cells. Put plainly: AAV-1-GFP transduction with CPPs, flow cytometry. Conditions: 200 μM CPP, AAV-1 MOI of 500, HepG2; 5% in the absence of CPP. In kind it is cell-based, human. The procedure:
(§1) In this example different AAV serotypes including AAV 1, AAV2, AAV5, AAV6, AAV8 and AAV9 were tested against human hepatocytes (HepG2) and human neuronal cells (HCN2) in the presence or in the absence of CPPs including ADGN-103a, ADGN-103b, ADGN-100, ADGN-109, ADGN-106, PEP-1, PEP-2, CADY, and TAT-HA2.
(§2) AAV-1, AAV-2, AAV-5, and AAV-6 viruses encoding green fluorescent protein were obtained from Cell Biolabs Inc and AAV-8 from Vector Biolabs. Stock solutions of virus were obtained at 1χ10^13 GC/ml in PBS/0.01% and diluted 50-fold to 2×10^11 GC/ml before use.
(§3) AAV-1, AAV-2, AAV-5, and AAV6 encoding green fluorescent protein were used at low MOI of 500 (1-2×10^7 PFU) and AAV-8 at MOI of 1000 (2-4×10^7 PFU). HepG2 and HCN2 cells (1 10^6 cells per well) were cultured in a 24 well plate culture dish format. For MOI of 1000, 5 μl of AAV virus diluted solutions were preincubated in PBS with increasing concentration of CPPs ranging from 0.1 to 200 μM for 30 min. For MOI of 500, 2.5 μl of AAV virus diluted solutions were preincubated in PBS with increasing concentration of CPPs ranging from 0.1 to 200 μM for 30 min. 200 μl of AAV or CPP/AAV complex solutions were added to cultured cells (1×10^6 cells per well). Cells are treated with either free AAV or CPP/AAV complexes for 4 h. and then the medium is replaced with fresh medium.
(§4) Viral mediated transgene expression was monitored by flow cytomety 2 days post-infection in HepG2 and Human neuronal HCN2. The percentage of GFP expressing cells were detected by flow cytometry and the increase of AAV infectivity was calculated based on the number of GFP-positive cells. Results are reported in FIGS. 5A-5D, 6A-6D, 7A-7D, 8A-8D, and 9A-9D.

In experiment [2] the test system is HCN2 cells. Put plainly: AAV-1-GFP transduction with CPPs, flow cytometry. Type of experiment: cell-based, human. Conditions: 200 μM CPP. The procedure: as §1, §2, §3, §4
A general note: In flow cytometry, cells or beads pass a laser one at a time.

Experiment [3] relates to HepG2 cells. Put plainly: AAV-5-GFP transduction with CPPs, flow cytometry. In kind it is cell-based, human. Conditions: 200 μM CPP. The procedure: as §1, §2, §3, §4
Experiment [4] concerns HCN2 cells. As to the kind of experiment: AAV-5-GFP transduction with CPPs, flow cytometry. In kind it is cell-based, human. The note with it: 200 μM CPP. The procedure:
as §1, §2, §3, §4

The subject of experiment [5] is HepG2 cells. As to the kind of experiment: AAV-8-GFP transduction with CPPs, flow cytometry. In kind it is cell-based, human. Conditions: 200 μM CPP, AAV-8 MOI of 1000, HepG2; 5% in the absence of CPP. The procedure: as §1, §2, §3, §4
In experiment [6] the test system is HCN2 cells. Put plainly: AAV-8-GFP transduction with CPPs, flow cytometry. Type of experiment: cell-based, human. The note with it: 200 μM CPP, AAV-8 MOI of 1000, HCN2; 5% in the absence of CPP. As for the experimental part: as §1, §2, §3, §4
Experiment [7] has as its system HepG2 cells. Conditions: AAV-2, HepG2, Liu et al., cited from earlier work.
Experiment [8] relates to HepG2 cells. As to the kind of experiment: AAV-2-GFP transduction with CPPs, flow cytometry. Conditions: 200 μM CPP. Type of experiment: cell-based, human. The procedure:
as §1, §2, §3, §4

In experiment [9] the test system is HCN2 cells. As to the kind of experiment: AAV-2-GFP transduction with CPPs, flow cytometry. Type of experiment: cell-based, human. Conditions: 200 μM CPP. As for the experimental part:
as §1, §2, §3, §4

For experiment [10], the system named is HepG2 cells. As to the kind of experiment: AAV-2 transfection of HepG2 cells with TAT-HA2 or LAH4 peptides (Liu et al., Molecular Therapy, 2014). Type of experiment: cell-based, human. The note with it: 200 μM, GFP-positive cells.
Experiment [11] concerns HepG2 cells. As to the kind of experiment: AAV-6-GFP transduction with CPPs, flow cytometry. Type of experiment: cell-based, human. The note with it: 200 μM CPP. The procedure: as §1, §2, §3, §4
Experiment [12] deals with HCN2 cells. As to the kind of experiment: AAV-6-GFP transduction with CPPs, flow cytometry. In kind it is cell-based, human. The procedure: as §1, §2, §3, §4

As to “CRRRQRRKKRGGDIMGEWGNEIFGAIAGFLG [TAT-HA2, reference compound]”, the “cells expressing GFP” value is 27% in experiment [1]; 22% in experiment [2] (AAV-1 MOI of 500, HCN2, 5% in the absence of CPP); 11% in experiment [3] (AAV-5 MOI of 500, HepG2, 5% in the absence of CPP); 10% in experiment [4] (AAV-5 MOI of 500, HCN2, 5% in the absence of CPP); 15% in [5]; 12% in [6]. Besides, the “cells expressing GFP” value worked out at 23% in experiment [8] (AAV-2 MOI of 500, HepG2, 4% in the absence of CPP); 20% in [9] (AAV-2 MOI of 500, HCN2, 4% in the absence of CPP); 35% in experiment [11] (AAV-6 MOI of 500, HepG2, 5% in the absence of CPP); 22% in experiment [12] (200 μM of CPP, AAV-6 MOI of 500, HCN2, 4% in the absence of CPP). Besides, the “increase of AAV-1 efficiency” value in experiment [2] (MOI of 500, HCN2) was 3 fold. Also, the “increase of AAV-5 efficiency” value in experiment [3] (MOI of 500, HepG2) amounted to 3 fold; in experiment [4] (MOI of 500, HCN2), 2 fold. For the same sequence, the values for the GFP-positive cells entry in [7] (200 μM concentration of peptide) and in [7] (concentration of CPPs) were “about 25%” and 12%, respectively. The “increase of AAV-2 efficiency” value was 5 fold in experiment [8] (MOI of 500, HepG2) and 3 fold in [9] (MOI of 500, HCN2). In experiment [10], the “fold lower than the results obtained with the ADGN peptides” value was 4 fold. Besides, the “increase of AAV-6 efficiency” value in experiment [11] (MOI of 500, HepG2) was “about 10 fold”; in experiment [12] (200 μM CPP, MOI of 500, HCN2) it was 3 fold.
